Data published in patent US10383943B2, “Compositions and related methods for the treatment of cancer” (South Dakota Board of Regents, priority 2016, dated 2019).

Assays:
[1] = test system: White blood cell (WBC) counts; assay: White blood cell (WBC) toxicity in mice; assay type: in vivo; conditions: FIG. 10
Excerpt: White blood cell (WBC) counts are important for immune mediated tumor clearance. In order to assess the level of WBC toxicity of induced by A-Platin relative the WBC lose was quantified in mice following treatment with drug along and drug administered in conjunction with radiation.

[2] = test system: SCC1 cells (HPV-human HNSCC); assay: Colony forming assay (crystal violet, A540) in SCC1 cells; assay type: cell-based; conditions: 10-500 μM, p<0.03 compared to control, FIG. 7
Description: (§1) In order to further assess the effect of A-platin on cancer cell growth, colony forming assays using Head and Neck Squamous Cell Carcinoma (HNSCC) were preformed. Briefly, 10,000 cells were plated in triplicate in 6-well plates per treatment condition. The next day cells were treated with the cisplatin, A-platin, or G-platin at the variable doses. On day 6 from plating, cells were fixed in 70% ethanol and stained with 0.5% crystal violet in 10% ethanol. After sufficient washing and drying, cells were destained in 25% glacial acetic acid, and absorbance of 100 uL of each destain solution was read on a SpectraMax plate reader at 540 nm (A540). A540 is an indirect measure of the amount of crystal violet per well, and thus the number of cells per well.

[3] = test system: SCC47 cells (HPV+ human HNSCC); assay: Colony forming assay (crystal violet, A540) in SCC47 cells; assay type: cell-based; conditions: FIG. 7
Description: as §1

[4] = test system: Primary human tonsil epithelial cells (HTE); assay: Colony forming assay (crystal violet, A540) in primary HTE cells; assay type: cell-based; conditions: FIG. 7

Compound	white blood cell loss ([1]; drug treatment alone groups)	white blood cell loss ([1]; drug+radiation groups)	cell number relative to control (A540) [2]	cell number relative to control (A540) ([3]; 50-500 μM, p<0.0007 compared to control)	cell number (A540) ([4]; 10-500 μM, p<0.04 compared to control)	cell number relative to control (A540) ([3]; 10-500 μM, p<0.008 compared to control)	cell number (A540) ([4]; 1-500 μM, p<0.007 compared to control)
N[C@@H](Cc1ccc(N=C(O)CCC(=O)[O][Pt]([NH2])([NH2])([OH])([Cl])[Cl])cc1)C(=O)O [AT-Platin]	less white blood cell loss	less white blood cell loss					
N.N.[Cl][Pt][Cl] [Cisplatin, cis-diamminedichloroplatinum(II), reference compound]			reduced cell number relative to control	reduced cell number relative to control	reduced cell number		
[NH2][Pt]([NH2])([OH])([Cl])([Cl])[O]C(=O)CCC(O)=N[C@@H]1C(O)[C@H](O)C(CO)O[C@@H]1O (some centres unmarked) [G-platin]			reduced cell number relative to control			reduced cell number relative to control	reduced cell number
